Experimental data: publication PMC10629545, “Identification of a second glycoform of the clinically prevalent O1 antigen from Klebsiella pneumoniae” (Proceedings of the National Academy of Sciences of the …, 2023)

Molecular target: T1, His6-WbbZ (WbbZ pyruvyltransferase) (Klebsiella pneumoniae, UniProt A0A0C4KUT2)
T1 construct: His6-tagged, expressed in E. coli TOP10, Ni-NTA purified
Test: PAGE of reaction products; MS and NMR
Assay type: biochemical
Conditions: pyruvyl donor, 10 mM PEP; acceptor formed by WbbY; pH 7.5, 10 mM MgCl2, 30 °C

T1 sequence (A0A0C4KUT2 entry or part of it): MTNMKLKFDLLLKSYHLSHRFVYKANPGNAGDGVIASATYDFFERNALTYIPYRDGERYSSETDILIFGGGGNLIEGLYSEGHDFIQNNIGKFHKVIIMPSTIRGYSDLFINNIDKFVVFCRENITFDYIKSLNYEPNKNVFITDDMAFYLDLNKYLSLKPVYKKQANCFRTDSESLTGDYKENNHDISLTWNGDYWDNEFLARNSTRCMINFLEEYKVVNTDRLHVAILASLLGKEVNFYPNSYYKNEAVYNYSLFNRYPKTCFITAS

SMILES: C=C(OP(=O)(O)O)C(=O)O [PEP]
- PAGE of reaction products; MS and NMR: phosphoenolpyruvate (PEP)-dependent reduction of the size of the reaction products
